Eleven compounds from US20020026053A1, “Novel 3-(substituted) -2- indolinones compounds and use thereof as inhibitors of protein kinase activity” (priority 1997, published 2002) can be followed below.

The subject of assay [1] is PDGF-R. The experiment in a line: PDGF-R Assay (cellular ELISA, U1242 cells). It counts as cell-based. The arrangement: concentration or dose not given beside the values. The settings on record: protocol P.119. The procedure, abridged:
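U1242 cells seeded in 0.5% serum, serum-starved, then exposed to compound for 2 hr at 37°C before 5–10 min ligand stimulation and lysis in HNTG. Lysate captured on receptor-antibody-coated plates; phosphotyrosine detected with polyclonal anti-pTyr, goat anti-rabbit IgG and ABTS/H2O2, A410 (ref 630 nm), versus untreated cells.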

The target in assay [2] is T1, EGFR (Homo sapiens, UniProt P00533).
T1 construct: endogenous in cells; host or cells: A431 cells (lysate, captured with SUMO1 anti-EGFR antibody)
The assay is described as follows: Biochemical EGFR Assay. The arrangement: concentration or dose not given beside the values. The settings on record: protocol P.167. The procedure, abridged:
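EGFR from A431 lysate was captured on anti-EGFR-coated wells and preincubated 30 min with compound (diluted 1:10 in TBS) at room temperature. After ATP/MnCl2 phosphorylation for 5 min, the reaction was stopped with EDTA. Phosphotyrosine was detected by ELISA (anti-phosphotyrosine, peroxidase conjugate, ABTS) at 410 nm.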

T1 sequence (P00533 25-1210): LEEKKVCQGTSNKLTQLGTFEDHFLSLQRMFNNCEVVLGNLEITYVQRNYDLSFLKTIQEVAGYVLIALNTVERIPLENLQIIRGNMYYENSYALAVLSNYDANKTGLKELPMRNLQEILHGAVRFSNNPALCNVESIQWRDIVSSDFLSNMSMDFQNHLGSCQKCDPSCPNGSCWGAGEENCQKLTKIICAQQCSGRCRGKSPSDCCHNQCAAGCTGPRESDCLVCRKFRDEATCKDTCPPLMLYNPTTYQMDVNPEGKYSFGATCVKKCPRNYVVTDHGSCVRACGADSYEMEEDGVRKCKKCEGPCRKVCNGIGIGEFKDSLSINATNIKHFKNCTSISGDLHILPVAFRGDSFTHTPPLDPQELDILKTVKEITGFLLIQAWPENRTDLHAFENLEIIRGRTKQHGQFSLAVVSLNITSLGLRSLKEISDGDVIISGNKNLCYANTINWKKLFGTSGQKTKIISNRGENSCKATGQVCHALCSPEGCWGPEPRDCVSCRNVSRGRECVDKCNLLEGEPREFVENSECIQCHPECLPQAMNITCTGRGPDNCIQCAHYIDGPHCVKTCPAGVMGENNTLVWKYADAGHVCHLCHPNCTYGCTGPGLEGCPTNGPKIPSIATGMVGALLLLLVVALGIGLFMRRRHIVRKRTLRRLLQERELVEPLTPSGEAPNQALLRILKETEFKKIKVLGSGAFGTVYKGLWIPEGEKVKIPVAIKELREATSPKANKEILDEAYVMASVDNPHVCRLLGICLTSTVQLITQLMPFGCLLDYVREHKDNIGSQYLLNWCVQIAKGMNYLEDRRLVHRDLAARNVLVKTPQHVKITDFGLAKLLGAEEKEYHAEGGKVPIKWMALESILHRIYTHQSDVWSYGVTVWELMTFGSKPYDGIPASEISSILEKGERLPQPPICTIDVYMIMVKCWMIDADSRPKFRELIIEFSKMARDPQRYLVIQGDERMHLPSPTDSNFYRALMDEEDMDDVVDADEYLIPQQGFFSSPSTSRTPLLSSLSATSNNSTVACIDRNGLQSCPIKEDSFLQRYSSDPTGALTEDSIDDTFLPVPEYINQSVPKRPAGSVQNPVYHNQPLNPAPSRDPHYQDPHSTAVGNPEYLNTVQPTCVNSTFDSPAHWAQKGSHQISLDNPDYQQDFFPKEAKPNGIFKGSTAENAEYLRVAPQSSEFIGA

Take `Cc1ccc(C)c(C=C2C(=O)Nc3c(Br)cc(Br)c(C)c32)c1` [10737/H07]: the “PDGF Kinase % Inhibition (P.119)” value in assay [1] is recorded as −17.7%. The “Biochem EGFR % Inhibition (P.167)” value in assay [2] is 17.2%. `Cc1c(Br)cc(Br)c2c1C(=Cc1ccc3ccccc3c1)C(=O)N2` [10737/H08]: the “PDGF Kinase % Inhibition (P.119)” value in assay [1] was −26.9%. Moreover, in assay [2], the “Biochem EGFR % Inhibition (P.167)” value is on record as −36.6%. In the same order, the values of `Cc1c(Br)cc(Br)c2c1C(=Cc1ccc(Oc3ccccc3)cc1)C(=O)N2` [10737/H09] are −11.7% and −15.9%.

In the case of `Cc1c(Br)cc(Br)c2c1C(=Cc1cccc(Oc3ccc(C(C)(C)C)cc3)c1)C(=O)N2` [10737/H10], the “PDGF Kinase % Inhibition (P.119)” value in assay [1] is reported as −12.9%. Besides, the “Biochem EGFR % Inhibition (P.167)” value in assay [2] is 0.3%. In the case of `Cc1c(Br)cc(Br)c2c1C(=Cc1cccc(Oc3cccc(C(F)(F)F)c3)c1)C(=O)N2` [10737/H11], the “PDGF Kinase % Inhibition (P.119)” value in assay [1] was −16.5%. Besides, the “Biochem EGFR % Inhibition (P.167)” value in assay [2] is reported as 4.5%. In the case of `CCCOc1ccc(C=C2C(=O)Nc3ccc(CCCl)cc32)cc1` [10738/G11], the “Biochem EGFR % Inhibition (P.167)” value in assay [2] is reported as 19.4%.

For the compound `Cc1ccc(Oc2cccc(C=C3C(=O)Nc4c(Br)cc(Br)c(C)c43)c2)cc1` [10738/H02], the “Biochem EGFR % Inhibition (P.167)” value in assay [2] was −52.0%. For the compound `Cc1c(Br)cc(Br)c2c1C(=Cc1cccc(Oc3ccc(Cl)c(Cl)c3)c1)C(=O)N2` [10738/H03], the “Biochem EGFR % Inhibition (P.167)” value in assay [2] is 16.7%. In the case of `COc1ccc(C=C2C(=O)Nc3c(Br)cc(Br)c(C)c32)cc1O` [10738/H04], the “Biochem EGFR % Inhibition (P.167)” value in assay [2] is reported as −7.0%.

Regarding `Cc1c(Br)cc(Br)c2c1C(=Cc1cc(O)ccc1[N+](=O)[O-])C(=O)N2` [10738/H05], the “Biochem EGFR % Inhibition (P.167)” value in assay [2] is 5.5%. The same measure, in the same setting: under `Cc1c(Br)cc(Br)c2c1C(=Cc1cccc(O)c1O)C(=O)N2` [10738/H06] stands −53.8%.
